Source: patent US20120095062A1, “TRICYCLIC COMPOUNDS, COMPOSITIONS, AND METHODS” (Pfizer Inc., priority 2007, published 2012)
Where a name gives a salt, the structure may show the parent alone. Read-outs that look alike come from different tables or passages of the source.

Tests used:
Serum osteocalcin = Serum osteocalcin suppression, 28-day repeat dose mouse model; type: in vivo, mice; conditions: Mus musculus, 672 h; mice, oral gavage 28 days, serum osteocalcin
LPS-induced serum TNFα = LPS-induced serum TNFα suppression, 28-day repeat dose mouse model; type: in vivo; conditions: 672 h, mice, oral gavage 28 days
[1] = system: IL-6, Human A549 lung epithelial cells; assay: IL-6 inhibition in IL-1β-stimulated A549 cells; type: cell-based; conditions: for IC50: A549, 20 h, A549 cells, 1 ng/mL IL-1β, 20 hours, read-out: IL-6 IC50; for inhibition: A549, A549 cells, Prednisolone (1 μM) = 100% inhibition control
Protocol: Human A549 lung epithelial cells (American Type Culture Collection, Rockville, Md.) were cultured in Kaighn's F-12K medium with penicillin-streptomycin (10 U/mL) and 10% heat-inactivated fetal bovine serum (all from Invitrogen, Grand Island, N.Y.). A549 cells were plated at a density of 30,000 cells/well in 96-well plates and incubated overnight at 37° C. and with 5% CO2. The cells were serum-starved by replacing the growth medium with serum-free Kaighn's F-12K medium with penicillin-streptomycin (10 U/mL) and, again, incubating overnight at 37° C. and with 5% CO2. On the third day, the medium was replaced with fresh serum-free medium and the cells were incubated with or without compound (vehicle was DMSO at 0.1% maximum concentration) for approximately 1 hour and then stimulated with 1 ng/mL recombinant human IL-1β (R&D Systems, Minneapolis, Minn.) for 20 hours at 37° C. and with 5% CO2. Cell supernatants were collected for determination of IL-6 levels using MSD (Meso Scale Discovery, Gaithersburg, Md.) 96-well Single Spot plates as per the manufacturer's instructions. Plates were read with an MSD Sector Imager 6000. […] Vehicle was used to define the 0% inhibition control. Percent inhibition for each compound concentration, relative to these controls, was calculated using Excel (Microsoft, Redmond, Wash.). IC50 values were generated using GraFit 5.0 data analysis software (Erithacus Software Ltd., Surrey, UK).

TNFα, U937 cells = assay: TNFα inhibition in LPS-stimulated differentiated U937 cells; type: cell-based; parameters: inhibition: dose or concentration left out as unconfirmed; conditions: Homo sapiens
Protocol: Cells were differentiated to a monocyte/macrophage phenotype with phorbol 12-myristate 13-acetate (Sigma-Aldrich, St. Louis, Mo.), 20 ng/mL, overnight. […] Following recovery, the cells were scraped, counted, and plated in accordance to the experimental design prior to stimulation with LPS, as described below. U937 cells were differentiated and plated at a density of 200,000 cells/well in 96-well plates. […] Louis, Mo.) for four hours at 37° C. and with 5% CO2. Cell supernatants were collected for determination of TNFα levels using an in-house sandwich-type ELISA. Mouse anti-human TNFα monoclonal antibody (clone 28401.111) and biotinylated goat anti-human TNFα (R&D Systems, Minneapolis, Minn.) were used as the capture and detection antibodies, respectively. Streptavidin-horseradish peroxidase (HRP) (R&D Systems, Minneapolis, Minn.) and K-Blue Substrate/Red Stop (Neogen, Lexington, Ky.) were used as the detection system. Absorbance was measured at 650 nm. TNFα concentrations were interpolated from a human TNFα recombinant protein (R&D Systems, Minneapolis, Minn.) standard curve using a four parameter logistics model by Magellan 4.11 data analysis software (Tecan, Durham, N.C.). […] Vehicle was used to define the 0% inhibition control. Percent inhibition for each concentration of compound, relative to these controls, was calculated using Excel (Microsoft, Redmond, Wash.).

IC50 (TNFα, U937 cells; U-937, 4 h, U937 cells, 100 ng/mL LPS, four hours, read-out: TNFα IC50) [nM] | IC50 (TNFα, U937 cells; U-937, value in brackets, footnote a: additional results that were found, read-out: TNFα IC50 (nM), additional result) [nM] | SMILES | ED50 (Serum osteocalcin) [mg/kg] | ED50 (LPS-induced serum TNFα) [mg/kg] | IC50 [1] [nM] | inhibition [1] [%] | inhibition (TNFα, U937 cells; U-937) [%]
 |  | Cc1ccncc1NC(=O)c1ccc2c(c1)CC[C@@H]1C[C@@](O)(C(F)(F)F)CC[C@@]21Cc1ccccc1 [Comparator D, (4βS,7R,8αR)-4β-benzyl-7-hydroxy-N-(4-methylpyridin-3-yl)-7-(trifluoromethyl)-4β,5,6,7,8,8α,9,10-octahydrophenanthrene-2-carboxamide] | 1.18 | 1.47 | 1.3 | 79.8 | 
 |  | Cc1c(NC(=O)c2ccc3c(c2)CC[C@@H]2C[C@@](O)(C(F)(F)F)CC[C@@]32Cc2ccccc2)ccc[n+]1[O-] [Comparator G] | 1.12 | 2.9 | 2.1 | 80.1 | 
 |  | Cc1ncccc1NC(=O)c1ccc2c(c1)CC[C@@H]1C[C@@](O)(C(F)F)CC[C@@]21Cc1ccccc1 [Comparator H, (4βS,7R,8αR)-4β-benzyl-7-(difluoromethyl)-7-hydroxy-N-(2-methylpyridin-3-yl)-4β,5,6,7,8,8α,9,10-octahydrophenanthrene-2-carboxamide] | 0.51 | 0.23 | 4.3 | 64.9 | 
92.1 | 28.8 | Cc1ncccc1NC(=O)c1ccc2c(c1)CC[C@@H]1C[C@@](O)(C(F)(F)F)CC[C@@]21Cc1ccccc1 [Example 1 HCL salt, (4βS,7R,8αR)-4β-benzyl-7-hydroxy-N-(2-methylpyridin-3-yl)-7-(trifluoromethyl)-4β,5,6,7,8,8α,9,10-octahydrophenanthrene-2-carboxamide] |  |  | 0.4 | 76.9 | 77.1
 |  | Cc1ncccc1NC(=O)c1ccc2c(c1)CC[C@@H]1C[C@@](OP(=O)(O)O)(C(F)(F)F)CC[C@@]21Cc1ccccc1 [Example 2, (2R,4αS,10αR)-4α-benzyl-7-((2-methylpyridin-3-yl)carbamoyl)-2-(trifluoromethyl)-1,2,3,4,4α,9,10α-octahydrophenanthren-2-yl dihydrogen phosphate] |  |  | 60 |  | 
